Measured values taken from article PMC6220303 (EMBO Molecular Medicine, 2018).

Tested on: healthy participants ≥ 60 years
Test: Adverse events after 3 months daily dosing (Appendix Table S8)
Assay type: in vivo, human
Method: For further details, see the Appendix Table S10 in Appendix and the accompanying clinical protocols synopsis (Appendix Table S11).
Randomized, double-blind, placebo-controlled, parallel-group study to assess the safety, Multiple-dose over 13-tolerability, pharmacokinetics ≥ 60 yrs 100 / 24 weeks (2, 10, 35 or 85 mg and pharmacodynamics of q.d. CNP520 vs. placebo) multiple oral doses of CNP520 in healthy elderly participants
Title A randomized, double-blind, placebo-controlled, parallel-group study to assess the safety, tolerability, pharmacokinetics and pharmacodynamics of multiple oral doses of CNP520 in healthy elderly subjects
Brief title Dose-ranging safety and tolerability study in subjects ≥60 years of age Sponsor and Clinical Novartis
Study type Interventional […]
rationale months to allow initiation future long-term efficacy trials in patients with Alzheimer’s disease (AD) or in subjects at risk of AD. In addition, data relevant for Pharmacokinetic/Pharmacodynamic modeling will be obtained in order to define the target dose in subsequent efficacy studies.
Primary Objective(s) To determine the safety and tolerability of multiple, once-daily oral doses of […]
Secondary • To assess the change from baseline of CSF Aβ concentrations (Aβ1-Objectives 38; Aβ1-40; Aβ1-42) in healthy elderly subjects over 13 weeks treatment with CNP520 as compared to placebo

Q: Which results are given for `C[C@@]1(c2nc(NC(=O)c3ncc(C(F)(F)F)cc3Cl)ccc2F)CO[C@@](C)(C(F)(F)F)C(N)=N1` [CNP520]?
A: AE incidence: Blood and lymphatic system disorders (2 mg daily, N = 25): 0 (0.0) n (%); AE incidence: Ear and labyrinth disorders (2 mg daily, N = 25): 0 (0.0) n (%); AE incidence: Eye disorders (2 mg daily, N = 25): 2 (8.0) n (%); AE incidence: Gastrointestinal disorders (2 mg daily, N = 25): 7 (28.0) n (%); AE incidence: General disorders and administration site conditions (2 mg daily, N = 25): 1 (4.0) n (%); AE incidence: Immune system disorders (2 mg daily, N = 25): 0 (0.0) n (%); AE incidence: Infections and infestations (2 mg daily, N = 25): 3 (12.0) n (%); AE incidence: Injury, poisoning and procedural complications (2 mg daily, N = 25): 7 (28.0) n (%); AE incidence: Investigations (2 mg daily, N = 25): 2 (8.0) n (%); AE incidence: Metabolism and nutrition disorders (2 mg daily, N = 25): 1 (4.0) n (%); AE incidence: Neoplasms benign, malignant & unspecified (incl. cysts and polyps) (2 mg daily, N = 25): 1 (4.0) n (%); AE incidence: Nervous system disorders (2 mg daily, N = 25): 13 (52.0) n (%); AE incidence: Psychiatric disorders (2 mg daily, N = 25): 1 (4.0) n (%); AE incidence: Renal and urinary disorders (2 mg daily, N = 25): 0 (0.0) n (%); AE incidence: Reproductive system and breast disorders (2 mg daily, N = 25): 0 (0.0) n (%); AE incidence: Respiratory, thoracic and mediastinal disorders (2 mg daily, N = 25): 6 (24.0) n (%); AE incidence: Skin and subcutaneous tissue disorders (2 mg daily, N = 25): 3 (12.0) n (%); AE incidence: Vascular disorders (2 mg daily, N = 25): 0 (0.0) n (%); Participants with at least one AE (2 mg daily, N = 25): 19 (76.0) n (%); AE incidence: Blood and lymphatic system disorders (10 mg daily, N = 25): 0 (0.0) n (%); AE incidence: Ear and labyrinth disorders (10 mg daily, N = 25): 1 (4.0) n (%); AE incidence: Eye disorders (10 mg daily, N = 25): 5 (20.0) n (%); AE incidence: Gastrointestinal disorders (10 mg daily, N = 25): 9 (36.0) n (%); AE incidence: General disorders and administration site conditions (10 mg daily, N = 25): 2 (8.0) n (%); AE incidence: Immune system disorders (10 mg daily, N = 25): 0 (0.0) n (%); AE incidence: Infections and infestations (10 mg daily, N = 25): 10 (40.0) n (%); AE incidence: Injury, poisoning and procedural complications (10 mg daily, N = 25): 11 (44.0) n (%); AE incidence: Investigations (10 mg daily, N = 25): 0 (0.0) n (%); AE incidence: Metabolism and nutrition disorders (10 mg daily, N = 25): 1 (4.0) n (%); AE incidence: Neoplasms benign, malignant & unspecified (incl. cysts and polyps) (10 mg daily, N = 25): 1 (4.0) n (%); AE incidence: Nervous system disorders (10 mg daily, N = 25): 10 (40.0) n (%); AE incidence: Psychiatric disorders (10 mg daily, N = 25): 2 (8.0) n (%); AE incidence: Renal and urinary disorders (10 mg daily, N = 25): 2 (8.0) n (%); AE incidence: Reproductive system and breast disorders (10 mg daily, N = 25): 2 (8.0) n (%); AE incidence: Respiratory, thoracic and mediastinal disorders (10 mg daily, N = 25): 6 (24.0) n (%); AE incidence: Skin and subcutaneous tissue disorders (10 mg daily, N = 25): 7 (28.0) n (%); AE incidence: Vascular disorders (10 mg daily, N = 25): 2 (8.0) n (%); Participants with at least one AE (10 mg daily, N = 25): 22 (88.0) n (%); AE incidence: Blood and lymphatic system disorders (35 mg daily, N = 26): 1 (3.8) n (%); AE incidence: Ear and labyrinth disorders (35 mg daily, N = 26): 1 (3.8) n (%); AE incidence: Eye disorders (35 mg daily, N = 26): 0 (0.0) n (%); AE incidence: Gastrointestinal disorders (35 mg daily, N = 26): 9 (34.6) n (%); AE incidence: General disorders and administration site conditions (35 mg daily, N = 26): 4 (15.4) n (%); AE incidence: Immune system disorders (35 mg daily, N = 26): 0 (0.0) n (%); AE incidence: Infections and infestations (35 mg daily, N = 26): 6 (23.1) n (%); AE incidence: Injury, poisoning and procedural complications (35 mg daily, N = 26): 10 (38.5) n (%); AE incidence: Investigations (35 mg daily, N = 26): 1 (3.8) n (%); AE incidence: Metabolism and nutrition disorders (35 mg daily, N = 26): 0 (0.0) n (%); AE incidence: Neoplasms benign, malignant & unspecified (incl. cysts and polyps) (35 mg daily, N = 26): 0 (0.0) n (%); AE incidence: Nervous system disorders (35 mg daily, N = 26): 9 (34.6) n (%); AE incidence: Psychiatric disorders (35 mg daily, N = 26): 1 (3.8) n (%); AE incidence: Renal and urinary disorders (35 mg daily, N = 26): 2 (7.7) n (%); AE incidence: Reproductive system and breast disorders (35 mg daily, N = 26): 0 (0.0) n (%); AE incidence: Respiratory, thoracic and mediastinal disorders (35 mg daily, N = 26): 5 (19.2) n (%); AE incidence: Skin and subcutaneous tissue disorders (35 mg daily, N = 26): 2 (7.7) n (%); AE incidence: Vascular disorders (35 mg daily, N = 26): 0 (0.0) n (%); Participants with at least one AE (35 mg daily, N = 26): 21 (80.8) n (%); AE incidence: Blood and lymphatic system disorders (85 mg daily, N = 24): 0 (0.0) n (%); AE incidence: Ear and labyrinth disorders (85 mg daily, N = 24): 1 (4.2) n (%); AE incidence: Eye disorders (85 mg daily, N = 24): 4 (16.7) n (%)
